Laboratory results as given in patent US20260137786A1, “FLUORESCENT COMPOUNDS FOR SYNERGISTIC PHOTODYNAMIC AND PHOTOTHERMAL CANCER THERANOSTIC” (The Hong Kong University of Science and Technology, priority 2022, published 2026).

Assays:
Assay type in all cases: physicochemical
[1] = Aggregation behaviour (AIE) in THF/water mixtures; settings: increasing water fraction
Procedure: (§1) First, the absorption and emission spectra were recorded. From FIG. 3a, the maximum absorptions of TPE-TBT and TPA-TBT are located at 582 and 620 nm, respectively, which display a redshift because of the enhancement of D-A strength from TPE-TBT to TPA-TBT. In addition, the emission spectra of the two molecules peaked at 750 and 830 nm, respectively (FIG. 3b). […] The aggregation behaviors of the compounds were then investigated. After adding poor solvent water to the THE solution, the fluorescence intensities of the two luminogens are first reduced at low water fractions (0-50% of water) resulting from the twisted intramolecular charge transfer (TICT) effect.

[2] = Fluorescence quantum yield (QY)
Procedure: The fluorescence quantum yield (QY) of the two compounds in the solid state, NPs, THF, and other solvents, were also measured (FIG. 3d).
For better use in cancer theranostic, TPA-TBT and TPE-TBT were fabricated into nanoparticles (NPs) through the nanoprecipitation method using DSPE-PEG2000 as an encapsulation matrix. The hydrodynamic diameters of the two NPs were confirmed by dynamic light scattering (DLS). […] The UV/Vis absorption and fluorescence emission spectra of the two kinds of NPs were also measured, and the results are similar to that in the THF solutions. The fluorescence quantum yield (QY) of the two compounds in the solid state, NPs, THF, and other solvents, were also measured (FIG. 3d). […] ROS production efficiency and PCE were investigated to further explore the phototherapy potential of these AIEgens. We utilized a common ROS indicator Dichlorofluorescin Diace (H2DCF-DA), whose fluorescence can be sensitively activated by ROS, to indicate the overall ROS generation. From FIG. 3e, the fluorescence intensity of H2DCF-DA intensified rapidly in the presence of TPA-TBT NPs. Finally, it reached around 210-fold more robust than the initial intensity after 5 min upon white light irradiation, displaying a much higher ROS production efficiency than TPE-TBT NPs. […] While the PCE of TPE-TBT NPs is only 30%. Considering all the aspects, TPA-TBT NPs show longer fluorescence emission wavelength, higher ROS generation efficiency, and better photothermal efficiency. Therefore, TPA-TBT NPs are more promising for applications in the field of phototheranostic for synergistic cancer therapy.

[3] = Absorption and emission (PL) spectra in THF solution; settings: for emission spectra peak / maximum absorption: 10 μM
Procedure: as §1

CCCCCCC(CCCC)Cc1cc(-c2ccc(N(c3ccc(OC)cc3)c3ccc(OC)cc3)cc2)sc1-c1c2c(c(-c3sc(-c4ccc(N(c5ccc(OC)cc5)c5ccc(OC)cc5)cc4)cc3CC(CCCC)CCCCCC)c3nn(CC(CC)CCCC)nc13)N=S=N2 (stereo not drawn) [TPA-TBT]
AIE intensity enhancement [1]: 3 fold
fluorescence quantum yield (QY) ([2]; THE solution / solution state): 5%
fluorescence quantum yield (QY) ([2]; solid state): 13%
Stokes shift [3]: 210 nm
emission spectra peak [3]: 830 nm
maximum absorption [3]: 620 nm

CCCCCCC(CCCC)Cc1cc(-c2ccc(C(=C(c3ccc(OC)cc3)c3ccc(OC)cc3)c3ccccc3)cc2)sc1-c1c2c(c(-c3sc(-c4ccc(C(=C(c5ccc(OC)cc5)c5ccc(OC)cc5)c5ccccc5)cc4)cc3CC(CCCC)CCCCCC)c3nn(CC(CC)CCCC)nc13)N=S=N2 (stereo not drawn) [TPE-TBT]
fluorescence quantum yield (QY) ([2]; THE solution / solution state): remarkable QY
emission spectra peak [3]: 750 nm
maximum absorption [3]: 582 nm
